Assay results published in the supplement of paper PMC10307832.

Key:
Assay in all cases: relative viability (nuclei count vs DMSO), 5 days (fraction); higher = more cells survive
[1] = compound: O=C(NCCCNc1nc(Nc2cccc(NC(=O)N3CCCC3)c2)ncc1I)c1cccs1 [BX 795] + CC(=O)Nc1cccc(-n2c(=O)n(C3CC3)c(=O)c3c(Nc4ccc(I)cc4F)n(C)c(=O)c(C)c32)c1 [Trametinib] (partner 0.02 µM)
Method in brief: (§1)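 Lung cancer cell lines, seeded in 1536-well plates, were treated the following day by pin tool with a single drug or with five library-drug doses (not always all listed) in √10 steps on top of a fixed anchor-drug dose. Cells were fixed and nuclei stained in one step after 5 days, and nuclei were counted. Relative viability is the nuclei count for treated wells divided by that for vehicle wells, reported as medians of duplicate plates.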

[2] = compound: O=C(NCCCNc1nc(Nc2cccc(NC(=O)N3CCCC3)c2)ncc1I)c1cccs1 [BX 795] + COc1cc2c(Oc3ccc(NC(=O)C4(C(=O)Nc5ccc(F)cc5)CC4)cc3F)ccnc2cc1OCCCN1CCOCC1 [Foretinib] (partner 0.25 µM)
Method in brief: as §1

[3] = compound: O=C(NCCCNc1nc(Nc2cccc(NC(=O)N3CCCC3)c2)ncc1I)c1cccs1 [BX 795] + CS(=O)(=O)CCNCc1ccc(-c2ccc3ncnc(Nc4ccc(OCc5cccc(F)c5)c(Cl)c4)c3c2)o1 [Lapatinib] (partner 2 µM)
Method in brief: as §1

[4] = compound: O=C(NCCCNc1nc(Nc2cccc(NC(=O)N3CCCC3)c2)ncc1I)c1cccs1 [BX 795] + Cc1nc(Nc2ncc(C(=O)Nc3c(C)cccc3Cl)s2)cc(N2CCN(CCO)CC2)n1 [Dasatinib] (partner 0.075 µM)
Method in brief: as §1

[5] = compound: O=C(NCCCNc1nc(Nc2cccc(NC(=O)N3CCCC3)c2)ncc1I)c1cccs1 [BX 795] + O=C(CCCCCCC(=O)Nc1ccccc1)NO [Vorinostat] (partner 1 µM)
Method in brief: as §1

Row | Cell Line | relative viability ([1]; first compound 0.04 µM) | relative viability ([1]; first compound 0.1265 µM) | relative viability ([1]; first compound 0.4 µM) | relative viability ([1]; first compound 1.265 µM) | relative viability ([2]; first compound 0.04 µM) | relative viability ([2]; first compound 0.1265 µM) | relative viability ([2]; first compound 0.4 µM) | relative viability ([2]; first compound 1.265 µM) | relative viability ([3]; first compound 0.04 µM) | relative viability ([3]; first compound 0.1265 µM) | relative viability ([3]; first compound 0.4 µM) | relative viability ([3]; first compound 1.265 µM) | relative viability ([4]; first compound 0.04 µM) | relative viability ([4]; first compound 0.1265 µM) | relative viability ([4]; first compound 0.4 µM) | relative viability ([4]; first compound 1.265 µM) | relative viability ([5]; first compound 0.04 µM) | relative viability ([5]; first compound 0.1265 µM) | relative viability ([5]; first compound 0.4 µM) | relative viability ([5]; first compound 1.265 µM)
1 | NCI-H1915 | 0.315 | 0.271 | 0.304 | 0.265 | 1.07 | 1.1 | 1.08 | 0.995 | 0.947 | 0.951 | 0.947 | 0.827 | 0.323 | 0.285 | 0.306 | 0.29 | 0.534 | 0.51 | 0.525 | 0.49
2 | NCI-H1944 | 0.467 | 0.377 | 0.538 | 0.374 | 0.996 | 0.888 | 1.06 | 0.802 | 0.903 | 0.781 | 0.879 | 0.642 | 0.241 | 0.219 | 0.201 | 0.194 | 0.674 | 0.637 | 0.575 | 0.475
3 | NCI-H1975 | 0.383 | 0.358 | 0.316 | 0.316 | 0.833 | 1.11 | 0.972 | 0.898 | 0.903 | 0.982 | 0.727 | 0.512 | 0.346 | 0.433 | 0.401 | 0.289 | 0.761 | 0.713 | 0.656 | 0.399
4 | NCI-H1993 | 0.554 | 0.439 | 0.504 | 0.561 | 0.804 | 0.961 | 0.73 | 0.665 | 0.848 | 0.786 | 0.79 | 0.658 | 0.454 | 0.56 | 0.472 | 0.525 | 0.833 | 0.731 | 0.577 | 0.524
